Test results published in patent US20240110220A1, “DETECTING BETA-LACTAMASE ENZYME ACTIVITY” (COMMISSARIAT A L'ENERGIE ATOMIQUE ET AUX ENERGIES …, priority 2021, published 2024).

Test system: bacterial colonies
Assay: Validation of the rapid test strip on bacterial colonies sensitive or resistant to third-generation cephalosporins (Table 12)
Type: biochemical
Design: key: A signal on the TL is considered as “P”; An absence of signal on the TL is defined as “N”
Protocol: In order to validate the test strip on bacterial colonies for its clinical use, […].
In order to carry out these tests, all of the solutions below have been prepared in the buffer strip having, for composition: 0.1 M pH 8 Tris buffer/HCL+0.15 M NaCl+0.5% Tween 20+1% chaps+0.01% sodium azide. […] The tracer is in dried format on the CP. […] A CL was produced. It consists of anti-tracer antibodies. The migration is carried out in a plastic cassette.
A bacterial colony was sampled from an URI-4 agar with a 1 μl ose, then deposited in the previously prepared Eppendorf tube. The tube was vortexed for five seconds, then incubated for 30 minutes at ambient temperature. Once the incubation was finished, 100 μl was sampled and deposited on the test strip. The reading is carried out after 10 minutes migration. A signal on the TL is considered as “P”. An absence of signal on the TL is defined as “N”.

Measured: results of the test

CO/N=C(\C(=O)N[C@@H]1C(=O)N2C(C(=O)O)=C(COC(C)=O)CS[C@H]12)c1csc(N)n1 [non-hydrolysed cefotaxime, cefotaxime]
N: C. freundii, N/A, isolate number 1, strains not capable of hydrolysing cefotaxime | E. asburiae, IMI-2, isolate number 2, strains not capable of hydrolysing cefotaxime | E. asburiae, IMI-17, isolate number 1, strains not capable of hydrolysing cefotaxime | E. cloacae, IMI-1, isolate number 1, strains not capable of hydrolysing cefotaxime | E. cloacae, N/A, isolate number 2, strains not capable of hydrolysing cefotaxime | E. coli, CTX-M-93, isolate number 1, strains not capable of hydrolysing cefotaxime | P. mirabilis, N/A, isolate number 1, strains not capable of hydrolysing cefotaxime | P. mirabilis, OXA-23, isolate number 1, strains not capable of hydrolysing cefotaxime | P. mirabilis, OXA-58, isolate number 1, strains not capable of hydrolysing cefotaxime | Salmonella spp., N/A, isolate number 1, strains not capable of hydrolysing cefotaxime
P: C. freundii, CMY-135 + MOX-9 + OXA-372 + OXA-10, isolate number 1, strains capable of hydrolysing cefotaxime | C. freundii, CMY-150 + LMB-1, isolate number 1, strains capable of hydrolysing cefotaxime | C. freundii, CTX-M + VIM + OXA-48, isolate number 1, strains capable of hydrolysing cefotaxime | C. freundii, CTX-M-1, isolate number 1, strains capable of hydrolysing cefotaxime | C. freundii, CTX-M-15 + TEM-1 + CMY-48 + OXA-48 like, isolate number 1, strains capable of hydrolysing cefotaxime | C. freundii, CTX-M-15, isolate number 1, strains capable of hydrolysing cefotaxime | C. freundii, SHV-12 + TEM-1 + OXA-48, isolate number 1, strains capable of hydrolysing cefotaxime | C. freundii, SHV-12, isolate number 1, strains capable of hydrolysing cefotaxime | C. freundii, TEM-1 + KPC-2, isolate number 1, strains capable of hydrolysing cefotaxime | C. freundii, TEM-1 + VIM-2 + OXA-9 + OXA-10, isolate number 1, strains capable of hydrolysing cefotaxime | C. freundii, TEM-1 + VIM-2, isolate number 1, strains capable of hydrolysing cefotaxime | C. freundii, TEM-3 + Overexpressed AmpC, isolate number 2, strains capable of hydrolysing cefotaxime | C. koserii, CTX-M-1, isolate number 1, strains capable of hydrolysing cefotaxime | C. koserii, TEM-1 + OXA-48, isolate number 1, strains capable of hydrolysing cefotaxime | E. cloacae, CTX-M-9, isolate number 1, strains capable of hydrolysing cefotaxime | E. cloacae, FRI-1, isolate number 1, strains capable of hydrolysing cefotaxime | E. cloacae, GES-6, isolate number 1, strains capable of hydrolysing cefotaxime | E. cloacae, GIM-1, isolate number 1, strains capable of hydrolysing cefotaxime | E. cloacae, IMI-3 + Overexpressed AmpC, isolate number 1, strains capable of hydrolysing cefotaxime | E. cloacae, Overexpressed AmpC, isolate number 7, strains capable of hydrolysing cefotaxime | E. cloacae, TEM-3, isolate number 1, strains capable of hydrolysing cefotaxime | E. cloacae, TMB-1, isolate number 1, strains capable of hydrolysing cefotaxime | E. coli, CTX-M + NDM-5 + OXA-181, isolate number 1, strains capable of hydrolysing cefotaxime | E. coli, CTX-M + SHV + NDM-1 + OXA-48, isolate number 1, strains capable of hydrolysing cefotaxime | E. coli, CTX-M-9 + TEM-1 + KPC-2, isolate number 1, strains capable of hydrolysing cefotaxime | E. coli, CTX-M-15 + CMY-2 + OXA-204 + OXA-1, isolate number 1, strains capable of hydrolysing cefotaxime | E. coli, CTX-M-15 + CMY-4 + OXA-204 + OXA-1, isolate number 1, strains capable of hydrolysing cefotaxime | E. coli, CTX-M-15 + CMY-4 + OXA-204, isolate number 1, strains capable of hydrolysing cefotaxime | E. coli, CTX-M-15 + CMY-6 + NDM-4, isolate number 1, strains capable of hydrolysing cefotaxime | E. coli, CTX-M-15 + NDM-6 + OXA-1, isolate number 1, strains capable of hydrolysing cefotaxime | E. coli, CTX-M-15 + OXA-232 + OXA-1, isolate number 1, strains capable of hydrolysing cefotaxime | E. coli, CTX-M-15 + TEM-1 + CMY + NDM-1, isolate number 1, strains capable of hydrolysing cefotaxime | E. coli, TEM-1 + CMY-16 + NDM-1 + OXA-1 + OXA-10, isolate number 1, strains capable of hydrolysing cefotaxime | E. coli, TEM-1 + NDM-9 + OXA-1, isolate number 1, strains capable of hydrolysing cefotaxime | K. oxytoca, CTX-M-15, isolate number 2, strains capable of hydrolysing cefotaxime | K. oxytoca, DHA-1 + SHV-75, isolate number 1, strains capable of hydrolysing cefotaxime | K. pneumoniae, CMY-4 + OXA-204, isolate number 1, strains capable of hydrolysing cefotaxime | K. pneumoniae, CTX-M + KPC-3, isolate number 1, strains capable of hydrolysing cefotaxime | K. pneumoniae, CTX-M + MCR-1, isolate number 2, strains capable of hydrolysing cefotaxime | K. pneumoniae, CTX-M + NDM-1 + OXA-232, isolate number 1, strains capable of hydrolysing cefotaxime | K. pneumoniae, CTX-M + NDM-4 + KPC-2, isolate number 1, strains capable of hydrolysing cefotaxime | K. pneumoniae, CTX-M + NDM-5 + OXA-232, isolate number 1, strains capable of hydrolysing cefotaxime | K. pneumoniae, CTX-M + OXA-370, isolate number 1, strains capable of hydrolysing cefotaxime | K. pneumoniae, CTX-M + OXA-519, isolate number 1, strains capable of hydrolysing cefotaxime | K. pneumoniae, CTX-M + SHV-11 + TEM-1 + OXA-162, isolate number 1, strains capable of hydrolysing cefotaxime | K. pneumoniae, CTX-M + SHV-12 + GES-5, isolate number 1, strains capable of hydrolysing cefotaxime | K. pneumoniae, CTX-M-2, isolate number 1, strains capable of hydrolysing cefotaxime | K. pneumoniae, CTX-M-3 + SHV-1 + TEM-1 + VIM-19, isolate number 1, strains capable of hydrolysing cefotaxime | K. pneumoniae, CTX-M-3, isolate number 1, strains capable of hydrolysing cefotaxime | K. pneumoniae, CTX-M-8, isolate number 1, strains capable of hydrolysing cefotaxime | K. pneumoniae, CTX-M-14 + SHV-11 + TEM-1, isolate number 1, strains capable of hydrolysing cefotaxime | K. pneumoniae, CTX-M-15 + SHV-1 + TEM-1 + OXA-232 + OXA-1, isolate number 1, strains capable of hydrolysing cefotaxime | K. pneumoniae, CTX-M-15 + SHV-1 + TEM-1, isolate number 1, strains capable of hydrolysing cefotaxime | K. pneumoniae, CTX-M-15 + SHV-1, isolate number 1, strains capable of hydrolysing cefotaxime | K. pneumoniae, CTX-M-15 + SHV-11 + TEM-1 + NDM-1 + OXA-1 + OXA-181, isolate number 1, strains capable of hydrolysing cefotaxime | K. pneumoniae, CTX-M-15 + SHV-11 + TEM-1 + NDM-1 + OXA-1, isolate number 1, strains capable of hydrolysing cefotaxime | K. pneumoniae, CTX-M-15 + SHV-11, isolate number 1, strains capable of hydrolysing cefotaxime | K. pneumoniae, CTX-M-15 + SHV-27 + TEM-1 + NDM-1 + OXA-1 + OXA-181, isolate number 1, strains capable of hydrolysing cefotaxime | K. pneumoniae, CTX-M-15 + SHV-28 + TEM-1 + CMY + OXA-204, isolate number 1, strains capable of hydrolysing cefotaxime | K. pneumoniae, CTX-M-15 + SHV-99 + TEM-1, isolate number 1, strains capable of hydrolysing cefotaxime | K. pneumoniae, CTX-M-15 + TEM-1 + OXA-48, isolate number 1, strains capable of hydrolysing cefotaxime | K. pneumoniae, CTX-M-15 + TEM, isolate number 1, strains capable of hydrolysing cefotaxime | K. pneumoniae, CTX-M-15, isolate number 1, strains capable of hydrolysing cefotaxime | K. pneumoniae, CTX-M-18, isolate number 1, strains capable of hydrolysing cefotaxime | K. pneumoniae, CTX-M-19, isolate number 1, strains capable of hydrolysing cefotaxime | K. pneumoniae, DHA-2, isolate number 1, strains capable of hydrolysing cefotaxime | K. pneumoniae, GES-1, isolate number 1, strains capable of hydrolysing cefotaxime | K. pneumoniae, IMP-8, isolate number 1, strains capable of hydrolysing cefotaxime | K. pneumoniae, KPC + VIM, isolate number 1, strains capable of hydrolysing cefotaxime | K. pneumoniae, KPC-3, isolate number 1, strains capable of hydrolysing cefotaxime | K. pneumoniae, KPC-4 + NDM-7, isolate number 1, strains capable of hydrolysing cefotaxime | K. pneumoniae, MCR-1 + SHV-2 + SHV-106 + mgrB truncated in orf by IS5, isolate number 1, strains capable of hydrolysing cefotaxime | K. pneumoniae, NDM-1, isolate number 1, strains capable of hydrolysing cefotaxime | K. pneumoniae, NDM-5 + VIM-1 + OXA-181, isolate number 1, strains capable of hydrolysing cefotaxime | K. pneumoniae, OXA-48, isolate number 1, strains capable of hydrolysing cefotaxime | K. pneumoniae, OXA-163, isolate number 2, strains capable of hydrolysing cefotaxime | K. pneumoniae, OXA-517, isolate number 1, strains capable of hydrolysing cefotaxime | K. pneumoniae, SHV-2a, isolate number 1, strains capable of hydrolysing cefotaxime | K. pneumoniae, SHV-5 + IMP-1, isolate number 1, strains capable of hydrolysing cefotaxime | K. pneumoniae, SHV-5 + VIM-1, isolate number 2, strains capable of hydrolysing cefotaxime | K. pneumoniae, SHV-11 + OXA-48, isolate number 1, strains capable of hydrolysing cefotaxime | K. pneumoniae, SHV-11 + TEM-1 + KPC-3 + OXA-9, isolate number 1, strains capable of hydrolysing cefotaxime | K. pneumoniae, SHV-11, isolate number 1, strains capable of hydrolysing cefotaxime | K. pneumoniae, SHV-12 + IMP-8, isolate number 1, strains capable of hydrolysing cefotaxime | K. pneumoniae, SHV-36 + TEM-1, isolate number 1, strains capable of hydrolysing cefotaxime | K. pneumoniae, SHV-38, isolate number 1, strains capable of hydrolysing cefotaxime | K. pneumoniae, TEM-3, isolate number 1, strains capable of hydrolysing cefotaxime | P. mirabilis, ACC-1, isolate number 1, strains capable of hydrolysing cefotaxime | P. mirabilis, CTX-M-71, isolate number 1, strains capable of hydrolysing cefotaxime | P. mirabilis, TEM-52, isolate number 1, strains capable of hydrolysing cefotaxime
